Entries after “also recorded” stand apart in the source; their conditions may differ. Read-outs that look alike come from different tables or passages of the source.
What was measured:
[1] = tested on: patients with age-related memory disorders; details: certain patients; not substantiated by clinical trials; cited from earlier work
PMDD patients = details: 1200 mg of calcium; cited from earlier work
animals and humans = details: cited from earlier work
[2] = cited from earlier work; for duration of action: in vivo
[3] = tested on: allergy tested subjects with common cold; details: lozenges
mice [4] = details: cited from earlier work
mice [5] = details: cited from earlier work; remark: listed apart in the source
mice [6] = details: animal tests; cited from earlier work
[7] = tested on: spontaneously hypertensive rats (SHR); assay: Blood pressure in spontaneously hypertensive rats (SHR); details: rat, in vivo
Description: D-Phenylalanine was able to lower systolic blood pressure of these rats close to normal (average drop of 36.7 mm Hg). It is noteworthy that this effect is blocked by the narcotic antagonist and the effect on blood pressure is synergistic with the beta-blocker popranolol. Even more important is that the lowering of blood pressure by d-phenylalanine lasted several days.

humans [8] = assay: Blood pressure in humans; type: in vivo, human; details: single dose
pain patients = details: cited from earlier work
animals and man = details: cited from earlier work; for analgesia: used separately
neurons = details: cited from earlier work
animals [9] = details: cited from earlier work
animals [10] = details: cited from earlier work; for rewarding actions: dopamine receptor agonists
humans [11] = details: in vivo; cited from earlier work
alcoholics = details: in vivo; cited from earlier work
[12] = tested on: subjects diagnosed with ADHD; details: study in the early 70's; cited from earlier work
COMT = COMT (Homo sapiens, UniProt P21964); details: cited from earlier work
MAO = details: cited from earlier work
5-HTP decarboxylase = 5-HTP decarboxylase (Homo sapiens, UniProt P20711); details: cited from earlier work
[13] = tested on: Blood Brain Barrier (BBB); details: mice, vs saline controls, cited from earlier work
brain of mice = details: cited from earlier work
[14] = tested on: synaptosomes in rat brain slices; details: cited from earlier work
[15] = in vivo; cited from earlier work
common cold = details: high dose supplementation; cited from earlier work
mu-opioid receptor = mu-opioid receptor (Mus musculus, UniProt P42866); details: spinal cord, wild-type mice; cited from earlier work
cell culture = details: concentrations thousands of times higher than physiological levels; cited from earlier work
adult albino rats = details: 10 day administration, 500 ng/kg per day with the drinking water; cited from earlier work
swine = details: in vivo; cited from earlier work
aminotripepidase = details: cited from earlier work
rhinovirus = details: reported 1974; cited from earlier work
[16] = homozygous mu-opioid receptor knockout mice
[17] = wild type (and heterozygous) mice
[18] = mu-opioid receptor knockout mice

Chain of COMT (P21964 whole entry, species assumed): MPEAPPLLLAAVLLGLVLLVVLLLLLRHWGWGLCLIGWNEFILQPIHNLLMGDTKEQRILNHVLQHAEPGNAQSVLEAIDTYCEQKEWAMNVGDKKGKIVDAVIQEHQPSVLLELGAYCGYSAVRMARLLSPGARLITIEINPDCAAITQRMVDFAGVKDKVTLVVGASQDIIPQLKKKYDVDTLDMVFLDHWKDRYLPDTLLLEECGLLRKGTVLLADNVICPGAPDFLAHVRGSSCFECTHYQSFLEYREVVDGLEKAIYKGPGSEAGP
Chain of 5-HTP decarboxylase (P20711 whole entry): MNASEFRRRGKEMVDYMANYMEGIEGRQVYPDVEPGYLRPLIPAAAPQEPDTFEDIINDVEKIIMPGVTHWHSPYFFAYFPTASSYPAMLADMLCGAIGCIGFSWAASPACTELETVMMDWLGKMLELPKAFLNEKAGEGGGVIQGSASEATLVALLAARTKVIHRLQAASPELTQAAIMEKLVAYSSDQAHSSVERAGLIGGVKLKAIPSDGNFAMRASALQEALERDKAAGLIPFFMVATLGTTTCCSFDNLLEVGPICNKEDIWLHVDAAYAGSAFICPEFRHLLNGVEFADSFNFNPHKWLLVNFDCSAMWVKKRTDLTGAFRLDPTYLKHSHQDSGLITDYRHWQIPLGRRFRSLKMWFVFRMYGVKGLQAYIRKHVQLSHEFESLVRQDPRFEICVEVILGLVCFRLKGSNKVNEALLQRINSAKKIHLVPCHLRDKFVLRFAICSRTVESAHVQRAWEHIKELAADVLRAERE
Chain of mu-opioid receptor (P42866 whole entry): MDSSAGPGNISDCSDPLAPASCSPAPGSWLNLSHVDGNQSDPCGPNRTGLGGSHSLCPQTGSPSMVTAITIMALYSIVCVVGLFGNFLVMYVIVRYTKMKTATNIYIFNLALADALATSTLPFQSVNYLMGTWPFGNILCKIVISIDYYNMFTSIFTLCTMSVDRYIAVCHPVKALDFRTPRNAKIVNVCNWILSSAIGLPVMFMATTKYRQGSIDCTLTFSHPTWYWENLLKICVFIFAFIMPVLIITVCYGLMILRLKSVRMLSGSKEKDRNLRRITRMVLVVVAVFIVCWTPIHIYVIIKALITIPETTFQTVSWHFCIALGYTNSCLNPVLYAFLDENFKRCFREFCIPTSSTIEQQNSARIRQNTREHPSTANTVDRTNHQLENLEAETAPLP

Huperzine
learning and memory [1]: improves learning and memory

[Ca+2] [calcium]
rate of reported symptoms relative to placebo (PMDD patients): fifty percent

CC(C)CC(N)C(=O)O (racemic) [DL-leucine]
alcohol intake (animals and humans): significantly lowered

Nc1c2c(nc3ccccc13)CCCC2 [Cognex]
duration of action [2]: 2 h

CC(=O)[O-].CC(=O)[O-].[Zn+2] [Zinc acetate]
duration of common cold symptoms [3]: significantly shortened
symptoms associated with allergies [3]: re3lieved

DPDPE
withdrawal responses to mechanical stimuli (mice [4]; [16]): not
withdrawal responses to mechanical stimuli (mice [4]; [17]): reduced

CN1CC[C@]23c4c5ccc(O)c4O[C@H]2[C@@H](O)C=C[C@H]3[C@H]1C5 [Morphine]
writhing responses (mice [5]; [18]): ineffective
writhing responses (mice [5]; wild-type mice): effective
withdrawal responses to mechanical stimuli (mice [4]; [16]): no significant effect
withdrawal responses to mechanical stimuli (mice [4]; [17]): dose-dependent reduction

N[C@H](Cc1ccccc1)C(=O)O [D-phenylalanine]
anti-inflammatory character (mice [6]): exhibits anti-inflammatory character
alcohol intake (animals and humans): significantly lowered
average drop of systolic blood pressure [7]: 36.7 mm Hg
duration of lowering of blood pressure [7]: several days
effect on blood pressure in presence of narcotic antagonist [7]: blocked
effect on blood pressure with the beta-blocker popranolol [7]: synergistic
heart rate [7]: no change
systolic and diastolic blood pressure [7]: significantly lowered
effect on blood pressure in normotensive individuals (humans [8]): no effect
duration of blood pressure lowering (humans [8]; humans): one or more days
pain associated with osteo- and rheumatoid arthritis (pain patients; cross-over studies in humans): reduced pain
analgesia in patients reactive to approved analgesic drugs including opiates (pain patients; double-blind studies): induced analgesia
analgesic effects of acupuncture (pain patients; in vivo): enhance
tolerance or addiction (animals and man; animals and man): without developing tolerance or addiction
duration of analgesia (animals and man; humans): very long-lasting
analgesia (animals and man; animals and man): excellent analgesia

C/C=C1\[C@H]2C=C(C)C[C@]1(N)c1ccc(=O)[nH]c1C2 [Huperzine A]
glutamate-induced cellular death of neurons (neurons): blocked
time active ([2]; dose of 2 micrograms/kg): six hours
duration of action [2]: 3 h
difference between amounts effective for memory and learning and the non-toxic-effect dose (animals [9]; behavioral studies in animals): 30-100 fold
side effects (animals [9]; dose of 2 micrograms/kg): no remarkable side effects

CC(C)C[C@H]1C(=O)N2CCC[C@H]2[C@]2(O)O[C@](NC(=O)[C@@H]3C=C4c5cccc6[nH]c(Br)c(c56)C[C@H]4N(C)C3)(C(C)C)C(=O)N12 [bromocriptine]
rewarding actions (animals [10]): have rewarding actions
short term memory (humans [11]): increase short term memory
reducing relapse rates as a function of dopamine D2 receptor genotype (alcoholics): selective positive effect

C=CCN1C[C@H](C)N([C@H](c2ccc(C(=O)N(CC)CC)cc2)c2cccc(OC)c2)C[C@H]1C [SNC8O]
writhing responses (mice [5]; [18]): ineffective
writhing responses (mice [5]; wild-type mice): effective

NC(Cc1ccccc1)C(=O)O (racemic) [DL-phenylalanine]
alcohol intake (animals and humans): significantly lowered
anxiety [12]: reduced anxiety
mood [12]: increased the mood

OC[C@H]1O[C@@H](OCCc2ccc(O)cc2)[C@H](O)[C@@H](O)[C@@H]1O [SAL, Salidosid]
COMT activity (COMT): inhibit; also recorded: inhibits COMT activity
MAO activity (MAO): inhibit; also recorded: decreases MAO activity
activity of 5-HTP decarboxylase (5-HTP decarboxylase): does not alter
increase of the rise in serotonin ([13]; SAL 30 mg/Kg with 5-HTP 100 mg/kg): 13%
increase of the rise in exogenous DOPA ([13]; SAL 30 mg/Kg with L-Dopa 50 mg/kg): 26%
disulfuram-induced decrease of NE in the brain (brain of mice; 30 mg/kg, animals): prevented
decrease of content of 5-HT (brain of mice; 30 mg/kg): 15%
decrease of content of NE (brain of mice; 30 mg/kg): 26%
decrease of concentration of Dopamine (brain of mice; 100 mg/kg): 28%
decrease of concentration of NE (brain of mice; 100 mg/kg): 20%
decrease of concentration of serotonin (brain of mice; 100 mg/kg): 23%
levels of epinephrine and DOPA (brain of mice; mouse, in vivo): did not alter

Tyr-D-arg
intracellular calcium [14]: enhance intracellular calcium
analgesic activity [15]: analgesic

O=C1O[C@H]([C@@H](O)CO)C(O)=C1O [vitamin C]
decrease of incidence of the common cold (common cold): no evidence

O=C(O)CCc1ccccc1 [hydrocinnamic acid]
alcohol intake (animals and humans): significantly lowered

O=C(CCCN1CCC(O)(c2ccc(Cl)cc2)CC1)c1ccc(F)cc1 [haloperidol]
alcohol and cocaine self-administration (animals [10]; animals): atenuate or block

C[C@@H](NC(=O)[C@@H](N)Cc1ccc(O)cc1)C(=O)NCC(=O)N(C)[C@@H](Cc1ccccc1)C(=O)NCCO [DAMGO]
[35S]GTPgammaS binding (mu-opioid receptor): concentration-dependent Increases

trivalent chromium
chromosome breakage (cell culture): can break chromosomes

NC(=O)CC[C@H](N)C(=O)O [1-glutamine]
content of glutamate, GABA and taurine in the brain (adult albino rats): significant increase

CC(C)C[C@@H](N)C(=O)O [D-leucine]
alcohol intake (animals and humans): significantly lowered
analgesia (animals and man; animals and man): excellent analgesia

CN1CCc2cccc3c2[C@H]1Cc1ccc(O)c(O)c1-3 [apomorphine]
rewarding actions (animals [10]): have rewarding actions

methionine-enkephalin
blood flow in specific brain sites (basal ganglia, frontal cortex, hippocampus) (swine): enhancement of blood flow

Tyr-Arg [Kyotorphin]
intracellular calcium [14]: enhance intracellular calcium
analgesic activity [15]: analgesic

[Zn+2] [zinc ions]
inhibition of aminotripepidase (aminotripepidase): potent inhibitor
rhinovirus replication (rhinovirus): inhibit

From US6955873B1, “Diagnosis and treatment system for reward deficiency syndrome (RDS) and related behaviors” (priority 1999, dated 2005)
